Publication PMC7785020, “A unique hormonal recognition feature of the human glucagon-like peptide-2 receptor” (Cell Research, 2020)
Changes are numbered by the printed parent chain.

Assays:
Parameters in all cases: WT (1–553); expressed in transfected cells
GLP-2R K231^2.67A = target: T1, GLP-2R K231^2.67A (Homo sapiens, UniProt O95838, K231A); assay: radioligand competition binding, K231^2.67A; conditions: COS-7, K231^2.67A; [^125I]GLP-2(1–33, M10Y) 10–15 pM, 4 h, 4 °C; n ≥ 3 in duplicate
T1 sequence (O95838 1-553 K231A): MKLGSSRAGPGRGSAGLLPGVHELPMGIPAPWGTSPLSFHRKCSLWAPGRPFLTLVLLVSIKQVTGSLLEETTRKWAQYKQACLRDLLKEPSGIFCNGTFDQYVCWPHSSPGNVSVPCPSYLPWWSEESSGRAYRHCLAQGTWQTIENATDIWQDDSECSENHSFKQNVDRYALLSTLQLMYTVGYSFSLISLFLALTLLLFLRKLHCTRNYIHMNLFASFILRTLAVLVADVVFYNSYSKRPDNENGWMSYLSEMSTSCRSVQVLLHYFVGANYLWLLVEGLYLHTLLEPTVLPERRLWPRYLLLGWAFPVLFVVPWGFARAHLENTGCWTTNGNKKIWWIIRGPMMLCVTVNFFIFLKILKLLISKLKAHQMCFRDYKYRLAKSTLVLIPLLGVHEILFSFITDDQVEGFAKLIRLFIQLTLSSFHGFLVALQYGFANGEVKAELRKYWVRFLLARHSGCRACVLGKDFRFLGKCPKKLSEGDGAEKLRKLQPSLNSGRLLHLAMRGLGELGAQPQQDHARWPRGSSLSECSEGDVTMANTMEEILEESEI
Protocol: (§1) A stepwise oxidation reaction was performed by addition of 6 aliquots of 5 µL ChloramineT (30 µL/mL) with a 1-min interval during constant stirring. The reaction was terminated by the addition of 400 µL phase A (0.1% trifluoracetic acid) before being fractionated into 1 mL volume by reverse-phase high-performance liquid chromatography (RP-HPLC, Waters 600 SimiPrep system) on a C18 column. The iodinated protein was […] by increasing concentrations of phase B (Acetonitrile + 0.1% TFA) and tested for competitive binding ability.
(§2) One day before transfection, the COS-7 cells were seeded in 75 cm^2 culture flasks (3 million cells/flask) in DMEM, containing 3.9 g/L NaHCO3 and supplemented with 10% FBS, 1% L-glutamine, 180 units/mL penicillin and 45 µg/mL streptomycin. After an overnight culture at 37 °C, 10% CO2 and 95% air humidity, the cells were transiently transfected with different GLP-2R constructs or pcDNA3.1 vector as previously described.[52] Following 24-h incubation, the cells were transferred to Costa® microtiter plates (150,000 cells/well, PerkinElmer) to achieve a 5%–10% specific binding. […] The cells were then washed twice in binding buffer (4 °C), lysed and counted for radioactivity using a Wallac Gamma Counter (PerkinElmer).

GLP-2R R242^ECL1E = target: T2, GLP-2R R242^ECL1E (Homo sapiens, UniProt O95838, R242E); assay: radioligand competition binding, R242^ECL1E; conditions: COS-7, R242^ECL1E; [^125I]GLP-2(1–33, M10Y) 10–15 pM, 4 h, 4 °C; n ≥ 3 in duplicate
T2 sequence (O95838 1-553 R242E): T1 sequence (O95838 1-553 K231A) with A231K, R242E
Protocol: as §1, §2

GLP-2R Y252^ECL1A = target: T3, GLP-2R Y252^ECL1A (Homo sapiens, UniProt O95838, Y252A); assay: radioligand competition binding, Y252^ECL1A; conditions: COS-7, Y252^ECL1A; [^125I]GLP-2(1–33, M10Y) 10–15 pM, 4 h, 4 °C; mean ± SEM, n ≥ 3 in duplicate
T3 sequence (O95838 1-553 Y252A): T1 sequence (O95838 1-553 K231A) with A231K, Y252A
Protocol: as §1, §2

| Structure (SMILES) | % Binding of WT (GLP-2R K231^2.67A) | % Binding of WT (GLP-2R R242^ECL1E) | % Binding of WT (GLP-2R Y252^ECL1A) [%] |
| --- | --- | --- | --- |
| CC[C@H](C)[C@H](NC(=O)[C@H](Cc1ccccc1)NC(=O)[C@H](CC(=O)O)NC(=O)[C@H](CCCNC(=N)N)NC(=O)[C@H](C)NC(=O)[C@H](C)NC(=O)[C@H](CC(C)C)NC(=O)[C@H](CC(N)=O)NC(=O)[C@H](CC(=O)O)NC(=O)[C@H](CC(C)C)NC(=O)[C@@H](NC(=O)[C@@H](NC(=O)[C@H](CC(N)=O)NC(=O)[C@H](CCSC)NC(=O)[C@H](CCC(=O)O)NC(=O)[C@H](CC(=O)O)NC(=O)[C@H](CO)NC(=O)[C@H](Cc1ccccc1)NC(=O)[C@H](CO)NC(=O)CNC(=O)[C@H](CC(=O)O)NC(=O)CNC(=O)[C@@H](N)Cc1c[nH]cn1)[C@@H](C)O)[C@@H](C)CC)C(=O)N[C@@H](CC(N)=O)C(=O)N[C@@H](Cc1c[nH]c2ccccc12)C(=O)N[C@@H](CC(C)C)C(=O)N[C@H](C(=O)N[C@@H](CCC(N)=O)C(=O)N[C@H](C(=O)N[C@@H](CCCCN)C(=O)N[C@H](C(=O)N[C@H](C(=O)N[C@@H](CC(=O)O)C(=O)O)[C@@H](C)O)[C@@H](C)CC)[C@@H](C)O)[C@@H](C)CC [Teduglutide] | N.B. | N.B. | 6.3 ± 1.7 |
| CC[C@H](C)[C@H](NC(=O)[C@H](Cc1ccccc1)NC(=O)[C@H](CC(=O)O)NC(=O)[C@H](CCCNC(=N)N)NC(=O)[C@H](C)NC(=O)[C@H](C)NC(=O)[C@H](CC(C)C)NC(=O)[C@H](CC(N)=O)NC(=O)[C@H](CC(=O)O)NC(=O)[C@H](CC(C)C)NC(=O)[C@@H](NC(=O)[C@@H](NC(=O)[C@H](CC(N)=O)NC(=O)[C@H](CCSC)NC(=O)[C@H](CCC(=O)O)NC(=O)[C@H](CC(=O)O)NC(=O)[C@H](CO)NC(=O)[C@H](Cc1ccccc1)NC(=O)[C@H](CO)NC(=O)CNC(=O)[C@H](CC(=O)O)NC(=O)[C@H](C)NC(=O)[C@@H](N)Cc1c[nH]cn1)[C@@H](C)O)[C@@H](C)CC)C(=O)N[C@@H](CC(N)=O)C(=O)N[C@@H](Cc1c[nH]c2ccccc12)C(=O)N[C@@H](CC(C)C)C(=O)N[C@H](C(=O)N[C@@H](CCC(N)=O)C(=O)N[C@H](C(=O)N[C@@H](CCCCN)C(=O)N[C@H](C(=O)N[C@H](C(=O)N[C@@H](CC(=O)O)C(=O)O)[C@@H](C)O)[C@@H](C)CC)[C@@H](C)O)[C@@H](C)CC [Human GLP-2 (1–33)] | N.B. | N.B. | 8.3 ± 1.8 |
